Test systems include KM12 colon; MDA-MB-435; MDA-N; NCI-H226 lung; NCI/ADR-RES ovarian; SF-539 CNS; SK-OV-3 ovarian; SN12C renal; HOP-62 NSCLC.
Common to all, as to experiment: NCI-60 cell line screen, 48 h

Molecules are shown by their SMILES.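 Cells were grown in 96-well plates and exposed to each compound for 48 hours at five concentrations; endpoints were interpolated linearly between bracketing concentrations, or set to the highest concentration if not reached. Here, GI50 denotes the concentration required for 50% inhibition of growth. TGI: total growth inhibition.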

`Nc1c2ccccc2nc2c1ccc1ncccc12`: the TGI is 52.6 µM in the assay on KM12 colon; greater than 100 µM in the assay on MDA-MB-435; 74.7 µM in the assay with MDA-N; 43.9 µM in the assay on NCI-H226 lung; 89.1 µM in the assay on NCI/ADR-RES ovarian; 49.9 µM in the assay with SF-539 CNS. Also, the TGI in the assay on SK-OV-3 ovarian and in the assay with SN12C renal was greater than 100 µM throughout.
For `COc1ccc(Nc2nc3ccc(C(F)(F)F)cc3nc2C(=O)O)cc1OC`, the TGI in the assay with HOP-62 NSCLC is 75.4 µM; with KM12 colon it was 33.7 µM; in the assay with MDA-MB-435 it was 82.5 µM; in the assay on MDA-N it was greater than 100 µM; in the assay with NCI-H226 lung, greater than 100 µM; in the assay with NCI/ADR-RES ovarian it was 57.5 µM. Further, the TGI in the assay with SN12C renal was greater than 100 µM.
As for `CC(C)(C)N=c1n(C(C)(C)C)oc(=O)n1C(C)(C)C`, the TGI in the assay on HOP-62 NSCLC, in the assay on KM12 colon, with MDA-N, in the assay with NCI-H226 lung, in the assay with NCI/ADR-RES ovarian and in the assay with SF-539 CNS was greater than 100 µM throughout. Besides, the TGI in the assay on SK-OV-3 ovarian and with SN12C renal was greater than 100 µM each time.
Turning to `CC(=O)OC[C@]1(C(=O)C(O)c2ccoc2)[C@H](C)CC[C@@]23COC(=O)C2=CCC[C@@H]31` (stereo partly drawn), the TGI with KM12 colon, with MDA-MB-435, in the assay on MDA-N, with NCI-H226 lung, in the assay with NCI/ADR-RES ovarian and in the assay on SF-539 CNS was greater than 10 µM each time. In addition, the TGI with SK-OV-3 ovarian and in the assay on SN12C renal was greater than 10 µM each time.
In the case of `COc1cccc(-c2cc(=O)c3c(C)cc(C)nc3[nH]2)c1`, the TGI in the assay on HOP-62 NSCLC is greater than 65.1 µM; in the assay on KM12 colon it was 16.6 µM; with MDA-MB-435 it was 0.398 µM; in the assay with NCI-H226 lung, 9.09 µM; in the assay on NCI/ADR-RES ovarian it was greater than 100 µM; in the assay with SK-OV-3 ovarian, greater than 100 µM. In the assay with SN12C renal, this compound showed a TGI greater than 100 µM.
As for `CC(C)(C)C1=Cc2cc3cc(C(C)(C)C)[nH]c(=O)c3cc2S(=O)(=O)N1`, the TGI was 63 µM in the assay on HOP-62 NSCLC; 94.6 µM in the assay with KM12 colon; 47.7 µM in the assay with NCI-H226 lung; greater than 100 µM with SK-OV-3 ovarian; greater than 100 µM with SN12C renal.
As to `c1ccc2c(c1)[nH]c1nc3cc(-c4ccc5nc6c(nc5c4)[nH]c4ccccc46)ccc3nc12`, the TGI in the assay with HOP-62 NSCLC, in the assay on KM12 colon, in the assay with MDA-MB-435, in the assay on MDA-N, with NCI-H226 lung and in the assay with SK-OV-3 ovarian was greater than 100 µM each time. The compound also gave a TGI in the assay with SN12C renal greater than 100 µM.
Consider `CCOP(=O)(OCC)C1C(CO)OC(n2ccc(=O)[nH]c2=O)C1O` (stereo not drawn), for which the TGI in the assay on HOP-62 NSCLC, in the assay with KM12 colon, with MDA-N, in the assay with NCI-H226 lung, in the assay with SF-539 CNS and in the assay on SN12C renal was greater than 100 µM in each case.
For the compound `CN(C)NC(=S)Nc1ccccc1Br`, the TGI with KM12 colon, with MDA-MB-435, in the assay with MDA-N, with NCI-H226 lung, in the assay on NCI/ADR-RES ovarian and with SF-539 CNS was greater than 100 µM throughout. Besides, in the assay with SK-OV-3 ovarian, the TGI is greater than 100 µM.
Turning to `O=C1C(c2c(O)[nH]c3ccc(S(=O)(=O)O)cc23)=Nc2ccccc21`, the TGI in the assay on HOP-62 NSCLC, with KM12 colon, in the assay with MDA-MB-435, in the assay on MDA-N, in the assay with NCI-H226 lung and in the assay on NCI/ADR-RES ovarian was greater than 100 µM in each case. The TGI with SK-OV-3 ovarian and in the assay with SN12C renal was greater than 100 µM in each case.
As for `CC(=O)N/N=C1/NN(C(C)=O)C2(S1)C(=O)Nc1ccc(Br)cc12` (stereo not drawn), the TGI in the assay on HOP-62 NSCLC, in the assay with KM12 colon, in the assay on MDA-MB-435, with NCI-H226 lung, in the assay with NCI/ADR-RES ovarian and with SF-539 CNS was greater than 100 µM throughout. In addition, the TGI in the assay with SN12C renal was greater than 100 µM.
As for `NC(CSCc1ccccc1)C(=O)O` (stereo not drawn), the TGI in the assay on HOP-62 NSCLC, with KM12 colon, in the assay with MDA-MB-435, in the assay on MDA-N, in the assay with NCI-H226 lung and in the assay on NCI/ADR-RES ovarian was greater than 100 µM throughout. The TGI in the assay on SK-OV-3 ovarian and in the assay on SN12C renal was greater than 100 µM each time.
On to `CCCCN1CCN(c2ccc3nc(-c4ccc5nc(-c6ccc(C(F)(F)F)cc6)[nH]c5c4)[nH]c3c2)CC1`, for which the GI50 is 1540 nM with HOP-62 NSCLC; 1120 nM in the assay on KM12 colon; 1590 nM in the assay on MDA-MB-435; 3.24 µM in the assay on NCI/ADR-RES ovarian; 1590 nM in the assay with SF-539 CNS; 1910 nM in the assay with SK-OV-3 ovarian. The GI50 in the assay with SN12C renal was 1610 nM. In addition, the TGI with HOP-62 NSCLC is 2.98 µM; with KM12 colon, 2.68 µM; in the assay with MDA-MB-435 it was 3.01 µM; with NCI/ADR-RES ovarian it was greater than 75.9 µM; with SF-539 CNS it was 3.02 µM; in the assay on SK-OV-3 ovarian, 3.39 µM. Moreover, the TGI with SN12C renal amounted to 3.21 µM.
As to `Cc1nn(C(=O)Cc2ccccc2)c2c1C(c1ccccc1O)SC(N)=N2` (stereo not drawn), the TGI in the assay on HOP-62 NSCLC, with KM12 colon, in the assay with MDA-MB-435, in the assay on NCI-H226 lung, in the assay with SF-539 CNS and in the assay with SK-OV-3 ovarian was greater than 100 µM each time. Moreover, in the assay with SN12C renal, the TGI was greater than 100 µM.
For the compound `Nc1nn2c(C(Br)Br)cc(C(Br)Br)nc2c1[N+](=O)[O-]`, the TGI with KM12 colon was 2.83 µM; with MDA-MB-435 it was 1.76 µM; in the assay with MDA-N it was 2.26 µM; with NCI-H226 lung, 5.5 µM; with NCI/ADR-RES ovarian, greater than 34 µM; in the assay on SF-539 CNS it was 1.16 µM. The TGI in the assay with SK-OV-3 ovarian was found to be 12 µM.
`O=C1/C(=C/c2ccccc2S)N=C(c2ccccc2)N1c1nc2ccc(Sc3ccccc3)cc2[nH]1`: the TGI in the assay on HOP-62 NSCLC was greater than 100 µM; with KM12 colon, greater than 100 µM; in the assay with MDA-MB-435, 29.7 µM; in the assay on MDA-N, 34.4 µM; in the assay with NCI/ADR-RES ovarian, 50.4 µM; in the assay with SK-OV-3 ovarian, greater than 100 µM. The compound further showed a TGI in the assay on SN12C renal of 99.1 µM.
Consider `CN(C)c1ccc(-c2c(C#N)c(S)n(NS(=O)(=O)c3ccccc3)c(=O)c2C#N)cc1`, for which the TGI with KM12 colon was 47.7 µM; in the assay with MDA-MB-435, 92.6 µM; in the assay on MDA-N, 86.5 µM; with NCI/ADR-RES ovarian it was 49.5 µM; in the assay on SF-539 CNS it was 53.4 µM; in the assay with SK-OV-3 ovarian it was greater than 100 µM. The compound further came in with a TGI in the assay with SN12C renal of 76.2 µM.
